We go through eleven compounds from US10829492B2, “Amino pyrazolopyrimidine compound used as neurotrophic factor tyrosine kinase receptor inhibitor” (CHIA TAI TIANQING PHARMACEUTICAL GROUP CO., LTD., priority 2016, dated 2020).

pIC50: −log10 of the molar value. Bounds are passed on as bounds.

Data set [1] addresses TrkB kinase (Homo sapiens (Human), UniProt Q16620). The data set can be described thus: HTRF assay for inhibitory activity (IC50) against NTRK kinase, TrkB. Format: biochemical. To be noted: ATP 50 μM, kinase 0.1 nM. As to the method:
(§1) 1. Assay for Inhibitory Activity (IC50) Against NTRK Kinase
(§2) A testing platform for TrkA, TrkB and TrkC kinase activity was established based on Homogeneous Time-Resolved Fluorescence (HTRF) assay, and the activities of the compounds were tested using the platform. The compounds were subjected to three-fold gradient dilution with 100% DMSO with a starting concentration of 1 mM (11 concentrations in total). 4 μL of diluted sample for each concentration was added to 96 μL of reaction buffer (50 mM HEPES, pH7.4, 5 mM MgCl2, 1 mM NaVO3, 0.001% Tween-20, 0.01% BSA and 1 mM DTT) and mixed homogeneously to be used as a 4* compound. The reaction buffer was used to formulate 2* TrkA, TrkB and TrkC kinases (purchased from Carna Biosciences 08-186, 08-187, 08-197, and the final concentrations thereof were 0.5 nM, 0.1 nM, and 1 nM, respectively) and 4* substrate mixture (ATP+TK peptide) (wherein the final concentrations of ATP were 40 μM, 50 μM, and 20 μM, respectively; TK peptide, HTRF® KinEASE™-TK, was purchased from Cisbio, and the final concentration thereof was 100 nM) for use. 2.5 μL of the 4* compound was added to a 384-well plate (OptiPlate-384, purchased from PerkinElmer), and then 5 μL of the 2* TrkA, TrkB and TrkC kinases were added, and mixed homogeneously by centrifugation. Then 2.5 μL of the 4* substrate mixture was added to initiate the reaction (the total reaction volume is 10 μL). The 384-well plate was placed in an incubator and incubated for 60 min at 23° C. Then the reaction was terminated by adding 5 μL of Eu3+ cryptate-labeled anti-phosphotyrosine antibody (HTRF® KinEASE™-TK, purchased from Cisbio), and 5 μL of Streptavidin-XL-665 (HTRF® KinEASE™-TK, purchased from Cisbio). After incubated for 1 hr in the incubator, the fluorescence values were read on Envision (purchased from PerkinElmer). The excitation wavelength was 320 nm, and the emission wavelengths for detection were 665 nm and 620 nm. The enzymatic activity was represented by a ratio of the two readout at the two emission wavelengths. The enzymatic activity for each compound was tested at 11 concentrations, and IC50 values of the compounds were obtained by calculating the data using GraFit6.0 software (Erithacus Software).
Background: Time-resolved FRET reads energy transfer from a long-lived donor to a nearby acceptor.

For data set [2], the target named is TrkC kinase (Homo sapiens (Human), UniProt Q16288). Put plainly: HTRF assay for inhibitory activity (IC50) against NTRK kinase, TrkC. The format is biochemical. To be noted: ATP 20 μM, kinase 1 nM. Here is the method:
as §1, §2

Data set [3] concerns the target TrkA kinase (Homo sapiens (Human), UniProt P04629). Put plainly: HTRF assay for inhibitory activity (IC50) against NTRK kinase, TrkA. Format: biochemical. To be noted: kinase 0.5 nM. As to the method:
as §1, §2

Data set [4] concerns the target JAK2 kinase (Homo sapiens (Human), UniProt O60674). Put plainly: HTRF assay for inhibitory activity (IC50) against JAK2 kinase. The format is biochemical. To be noted: ATP 5 μM, kinase 0.05 nM. As to the method: 2. Assay for Inhibitory Activity (IC50) Against JAK2 Kinase
A testing platform for JAK2 kinase activity was established based on Homogeneous Time-Resolved Fluorescence (HTRF) assay, and the activities of the compounds were tested using the platform. The compounds were subjected to three-fold gradient dilution with 100% DMSO with a starting concentration of 1 mM (11 concentrations in total). 4 μL of diluted sample for each concentration was added to 96 μL of reaction buffer (50 mM HEPES, pH7.4, 10 mM MgCl2, 1 mM EDTA, 0.01% Tween-20, 0.005% BSA and 2 mM DTT) and mixed homogeneously. 2.5 μL of the resulting liquid was then added to a 384-well plate (OptiPlate-384, purchased from PerkinElmer), and 5 μL of JAK2 kinase (purchased from Carna, and the final concentration thereof is 0.05 nM) was added, and mixed homogeneously by centrifugation. Then 2.5 μL of a mixture of ATP (the final concentration is 5 μM) and TK peptide (HTRF® KinEASE™-TK, purchased from Cisbio, and the final concentration is 100 nM) was added to initiate the reaction (the total reaction volume is 10 μL). The 384-well plate was placed in an incubator to incubate for 120 min at 23° C. Then the reaction was terminated by adding 5 μL of Eu3+ cryptate-labled anti-phosphotyrosine antibody (purchased from Cisbio), and 5 μL of Streptavidin-XL-665 (HTRF® KinEASE™-TK, purchased from Cisbio). After incubated for 1 hr in the incubator, the fluorescence values were read on Envision (purchased from PerkinElmer). The excitation wavelength was 320 nm, and the emission wavelengths for detection were 665 nm and 620 nm. The enzymatic activity was represented by a ratio of the two readout at the two emission wavelengths. The enzymatic activity for each compound was tested at 11 concentrations, and IC50 values of the compounds were obtained by calculating the data using GraFit6.0 software (Erithacus Software).

The nature of data set [5]: Pharmacokinetic assay in rats. To be noted: rat, po, male SD rats, 5 mg/kg single intragastric administration, plasma. Format: in vivo. As to the method:
Male SD rats were available from Beijing Vital River Laboratory Animal Technology Co., Ltd. The rats were allocated with three rats per group, and separately administered the suspension of a sample to be tested (5 mg/kg) by single intragastric administration. Before the experiment, the animals were fasted overnight, and the fasting time was from 10 hrs before administration to 4 hrs after administration. After administration, a blood sample was taken at 0.25 hr, 0.5 hr, 1 hr, 2 hrs, 4 hrs, 6 hrs, 8 hrs and 24 hrs. After the animals were narcotized with isoflurane using an anaesthesia machine for small animals, 0.3 mL of whole blood was taken from fundus venous plexus, and placed in a heparin anticoagulant tube. At 4° C., the sample was centrifuged at 4000 rpm for 5 min, and plasma was transferred to a centrifuge tube and preserved at −80° C. until the analysis was started. The sample in plasma was extracted by the protein precipitation method, and the extracted liquid was analyzed by LC/MS/MS.

Data set [6] has as its target TrkA^G667C (Kinase domain) kinase (Homo sapiens (Human), UniProt P04629, G667C). Put plainly: HTRF assay for inhibitory activity (IC50) against TrkA^G667C kinase. Format: biochemical. To be noted: mutant TrkA kinase, ATP 15 μM, kinase 0.5 nM. As to the method: 3. Assay for Inhibitory Activity (IC50) Against TrkA^G667C Kinase
TrkA^G667C (Kinase domain) kinase was expressed in Sf9 cells (purchased from Invitrogen) using pIEX-Bac-4 (purchased from Merck), and purified by using Ni column affinity chromatography on AKTA Purifier (GE company). A testing platform for TrkA^G667C kinase activity was established based on Homogeneous Time-Resolved Fluorescence (HTRF) assay, and the activities of the compounds were tested using the platform. The compounds were subjected to five-fold gradient dilution with 100% DMSO with a starting concentration of 1 mM (8 concentrations in total). 4 μL of diluted sample for each concentration was added to 96 μL of reaction buffer (50 mM HEPES, pH7.4, 5 mM MgCl2, 1 mM NaVO3, 0.001% Tween-20, 0.01% BSA and 1 mM DTT) and mixed homogeneously to be used as a 4* compound. The reaction buffer was used to formulate 2* TrkA^G667C kinases (the final concentration was 0.5 nM) and a 4* substrate mixture (ATP+TK peptide) (wherein, the final concentration of ATP was 15 μM; TK peptide, HTRF® KinEASE™-TK, was purchased from Cisbio, and the final concentration thereof was 100 nM) for use. 2.5 μL of the 4* compound was added to a 384-well plate (OptiPlate-384, purchased from PerkinElmer), and then 5 μL of the 2* TrkA^G667C kinases were added, and mixed homogeneously by centrifugation. Then 2.5 μL of the 4* substrate mixture was added to initiate the reaction (the total reaction volume is 10 μL). The 384-well plate was placed in an incubator to incubate for 60 min at 23° C. Then the reaction was terminated by adding 5 μL of Eu3+ cryptate-labeled anti-phosphotyrosine antibody (HTRF KinEASE™-TK, purchased from Cisbio), and 5 μL of Streptavidin-XL-665 (HTRF® KinEASE™-TK, purchased from Cisbio). After incubated for 1 h in the incubator, the fluorescence values were read on Envision (purchased from PerkinElmer). The excitation wavelength was 320 nm, and the emission wavelengths for detection were 665 nm and 620 nm. The enzymatic activity was represented by a ratio of the two readout at the two emission wavelengths. […]

TrkC kinase, sequence (Q16288 32-839): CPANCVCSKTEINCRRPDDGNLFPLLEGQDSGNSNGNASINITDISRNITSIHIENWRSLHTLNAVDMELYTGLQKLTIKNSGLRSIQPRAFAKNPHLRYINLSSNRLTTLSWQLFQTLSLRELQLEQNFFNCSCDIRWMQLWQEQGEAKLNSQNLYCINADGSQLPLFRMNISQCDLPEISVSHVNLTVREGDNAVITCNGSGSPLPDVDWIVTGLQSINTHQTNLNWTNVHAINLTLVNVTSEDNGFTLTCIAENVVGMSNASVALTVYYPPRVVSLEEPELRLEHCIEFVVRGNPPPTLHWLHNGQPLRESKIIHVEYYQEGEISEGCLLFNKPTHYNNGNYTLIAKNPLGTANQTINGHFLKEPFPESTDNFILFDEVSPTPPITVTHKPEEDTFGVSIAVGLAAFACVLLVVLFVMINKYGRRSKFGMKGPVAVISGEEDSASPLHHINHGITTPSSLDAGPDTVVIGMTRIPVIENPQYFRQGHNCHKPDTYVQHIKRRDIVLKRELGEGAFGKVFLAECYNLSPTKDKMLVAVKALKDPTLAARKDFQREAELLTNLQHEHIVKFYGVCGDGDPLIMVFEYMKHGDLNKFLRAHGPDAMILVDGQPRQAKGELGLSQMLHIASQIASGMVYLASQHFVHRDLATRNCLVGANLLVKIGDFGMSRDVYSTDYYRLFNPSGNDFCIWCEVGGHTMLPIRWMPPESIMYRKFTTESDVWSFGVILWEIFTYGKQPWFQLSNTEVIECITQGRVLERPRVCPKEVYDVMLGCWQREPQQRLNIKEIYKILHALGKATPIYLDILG
TrkA kinase, sequence (P04629 33-796): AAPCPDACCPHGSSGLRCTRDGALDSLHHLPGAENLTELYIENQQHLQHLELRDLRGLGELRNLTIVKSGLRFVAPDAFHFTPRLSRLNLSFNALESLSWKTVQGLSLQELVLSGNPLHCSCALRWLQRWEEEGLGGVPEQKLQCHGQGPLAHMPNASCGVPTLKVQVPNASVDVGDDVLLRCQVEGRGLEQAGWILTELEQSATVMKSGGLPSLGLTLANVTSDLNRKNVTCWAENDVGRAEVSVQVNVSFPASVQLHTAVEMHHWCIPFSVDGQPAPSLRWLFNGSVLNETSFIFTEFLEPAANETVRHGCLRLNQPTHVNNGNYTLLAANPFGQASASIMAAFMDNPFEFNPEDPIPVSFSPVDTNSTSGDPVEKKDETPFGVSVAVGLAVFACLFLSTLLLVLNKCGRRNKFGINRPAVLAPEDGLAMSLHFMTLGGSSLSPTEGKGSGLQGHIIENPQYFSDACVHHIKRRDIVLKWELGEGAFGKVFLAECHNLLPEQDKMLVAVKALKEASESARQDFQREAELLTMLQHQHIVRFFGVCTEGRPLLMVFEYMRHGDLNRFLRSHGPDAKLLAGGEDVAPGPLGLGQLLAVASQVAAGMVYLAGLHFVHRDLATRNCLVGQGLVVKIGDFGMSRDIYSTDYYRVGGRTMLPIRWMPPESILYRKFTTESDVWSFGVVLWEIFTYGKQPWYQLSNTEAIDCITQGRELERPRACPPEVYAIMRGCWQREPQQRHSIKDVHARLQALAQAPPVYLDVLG
TrkB kinase, sequence (Q16620 32-822): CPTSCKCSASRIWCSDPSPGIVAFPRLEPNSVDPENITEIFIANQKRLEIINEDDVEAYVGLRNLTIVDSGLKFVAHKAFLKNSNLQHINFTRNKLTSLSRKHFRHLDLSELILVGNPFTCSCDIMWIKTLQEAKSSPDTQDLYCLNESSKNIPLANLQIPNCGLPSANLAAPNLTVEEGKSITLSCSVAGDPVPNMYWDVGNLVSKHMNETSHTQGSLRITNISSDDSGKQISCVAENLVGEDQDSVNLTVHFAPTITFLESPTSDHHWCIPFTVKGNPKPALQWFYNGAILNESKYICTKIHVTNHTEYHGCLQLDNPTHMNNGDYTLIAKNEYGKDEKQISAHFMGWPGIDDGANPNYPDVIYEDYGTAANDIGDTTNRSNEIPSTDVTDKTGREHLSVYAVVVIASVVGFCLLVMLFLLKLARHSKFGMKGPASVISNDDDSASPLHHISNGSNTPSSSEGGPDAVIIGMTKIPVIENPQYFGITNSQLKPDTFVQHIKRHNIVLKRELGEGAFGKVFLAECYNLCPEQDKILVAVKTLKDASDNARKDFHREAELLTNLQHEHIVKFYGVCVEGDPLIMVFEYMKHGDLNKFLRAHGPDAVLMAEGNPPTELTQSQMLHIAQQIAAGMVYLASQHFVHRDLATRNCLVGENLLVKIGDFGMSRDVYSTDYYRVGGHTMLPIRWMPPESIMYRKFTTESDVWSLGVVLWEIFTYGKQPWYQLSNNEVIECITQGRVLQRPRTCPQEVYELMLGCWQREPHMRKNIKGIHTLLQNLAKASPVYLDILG
JAK2 kinase, sequence (O60674 whole entry): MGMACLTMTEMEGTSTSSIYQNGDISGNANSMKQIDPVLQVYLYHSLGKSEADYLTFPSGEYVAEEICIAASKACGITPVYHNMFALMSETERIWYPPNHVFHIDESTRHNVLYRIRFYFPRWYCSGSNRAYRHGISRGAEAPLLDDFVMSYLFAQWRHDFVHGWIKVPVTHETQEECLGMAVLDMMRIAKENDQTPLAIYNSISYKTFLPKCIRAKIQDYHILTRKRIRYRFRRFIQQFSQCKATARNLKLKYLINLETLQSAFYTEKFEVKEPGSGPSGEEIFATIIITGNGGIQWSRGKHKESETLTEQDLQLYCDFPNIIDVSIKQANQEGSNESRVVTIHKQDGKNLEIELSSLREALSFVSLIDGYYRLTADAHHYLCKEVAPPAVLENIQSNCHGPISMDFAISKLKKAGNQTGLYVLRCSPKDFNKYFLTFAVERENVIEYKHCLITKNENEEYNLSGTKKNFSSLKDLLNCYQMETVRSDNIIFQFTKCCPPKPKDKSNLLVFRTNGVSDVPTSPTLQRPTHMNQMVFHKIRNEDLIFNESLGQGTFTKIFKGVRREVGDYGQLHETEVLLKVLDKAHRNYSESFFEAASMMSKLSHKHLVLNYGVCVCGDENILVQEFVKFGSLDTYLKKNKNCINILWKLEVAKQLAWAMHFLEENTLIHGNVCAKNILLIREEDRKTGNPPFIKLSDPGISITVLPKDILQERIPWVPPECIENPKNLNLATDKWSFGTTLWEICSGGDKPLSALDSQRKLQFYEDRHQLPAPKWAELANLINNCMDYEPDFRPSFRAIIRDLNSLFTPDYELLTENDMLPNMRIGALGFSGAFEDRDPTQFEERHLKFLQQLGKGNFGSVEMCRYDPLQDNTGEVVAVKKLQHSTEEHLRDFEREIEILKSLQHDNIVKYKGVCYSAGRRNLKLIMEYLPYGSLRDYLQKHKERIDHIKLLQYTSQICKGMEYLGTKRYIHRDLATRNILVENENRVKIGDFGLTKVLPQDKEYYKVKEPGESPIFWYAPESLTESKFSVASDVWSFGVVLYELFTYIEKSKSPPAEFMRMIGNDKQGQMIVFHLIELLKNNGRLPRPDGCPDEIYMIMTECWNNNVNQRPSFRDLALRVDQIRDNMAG
TrkA^G667C (Kinase domain) kinase, sequence (P04629 510-781 G667C): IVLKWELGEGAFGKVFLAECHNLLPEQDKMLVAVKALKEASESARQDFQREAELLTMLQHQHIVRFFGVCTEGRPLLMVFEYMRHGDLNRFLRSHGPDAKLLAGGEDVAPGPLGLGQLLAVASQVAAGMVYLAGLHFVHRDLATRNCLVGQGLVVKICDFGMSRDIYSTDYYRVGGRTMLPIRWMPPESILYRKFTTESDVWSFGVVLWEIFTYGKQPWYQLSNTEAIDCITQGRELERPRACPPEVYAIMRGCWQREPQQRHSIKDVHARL

One may read the pIC50 as the negative decadic logarithm of the IC50, by convention in mol/L. Read a high pIC50 as a small IC50. In the case of `Nc1nn2ccc(N3CCC[C@@H]3c3cc(F)ccc3F)nc2c1C(=O)Nc1ccc(F)cc1` [Example 14, (R)-2-amino-5-(2-(2,5-difluorophenyl)pyrrolidin-1-yl)-N-(4-fluorophenyl)pyrazolo[1,5-a]pyrimidine-3-carboxamide], the negative logarithm of the IC50 (pIC50) in data set [1] is > 8.00; in data set [2] it was > 8.00; in data set [3] (Table 1, ATP 40 μM), > 9.00; in data set [3] (Table 2, ATP 40 μM), > 9.00; in data set [4] it was < 6.30.

The Cmax is the highest concentration seen after dosing. Broadly, the Tmax is the time at which the peak concentration occurs. In general, half-life refers to how long it takes for the measured level to halve. Higher therefore signals slow loss. In the case of `CNC(=O)c1c(N)nn2ccc(N3C[C@@H](F)C[C@@H]3c3cc(F)ccc3F)nc12` [Example 39, 2-amino-5-((2R,4S)-2-(2,5-difluorophenyl)-4-fluoropyrrolidin-1-yl)-N-methylpyrazolo[1,5-a]pyrimidine-3-carboxamide], the pIC50 in data set [1] is > 9.00; in data set [2], > 9.00; in data set [3] (Table 1, ATP 40 μM), > 9.00; in data set [3] (Table 2, ATP 40 μM), > 9.00; in data set [6], > 8.00; in data set [4], < 8.00. In data set [5], the Cmax is 276 ng/mL. Besides, the Tmax in data set [5] was 1.67 h. In addition, the half-life in data set [5] is 87.6 min. Besides, the AUC(0-inf) in data set [5] (read-out: AUCINF_obs) came out at 876 ng·h/mL.

Consider `NC(=O)c1c(N)nn2ccc(N3CCC[C@@H]3c3cc(F)ccc3F)nc12` [Example 4, (R)-2-amino-5-(2-(2,5-difluorophenyl)pyrrolidin-1-yl)pyrazolo[1,5-a]pyrimidine-3-carboxamide], for which the negative-log IC50 (pIC50) in data set [1] was > 8.00; in data set [2] it was > 8.00; in data set [3] (Table 1, ATP 40 μM), > 9.00; in data set [3] (Table 2, ATP 40 μM) it was > 9.00; in data set [4] it was < 5.70.

For `Nc1nn2ccc(N3CCC[C@@H]3c3cc(F)ccc3F)nc2c1C(=O)N[C@H]1CC[C@H](O)CC1` [Example 12, 2-amino-5-((R)-2-(2,5-difluorophenyl)pyrrolidin-1-yl)-N-((trans)-4-hydroxycyclohexyl)pyrazolo[1,5-a]pyrimidine-3-carboxamide], the negative-log IC50 (pIC50) was > 9.00 in data set [1]; > 9.00 in data set [2]; > 9.00 in data set [3] (Table 1, ATP 40 μM); > 9.00 in data set [3] (Table 2, ATP 40 μM); > 9.00 in data set [6]; < 7.70 in data set [4].

On to `N#Cc1c(N)nn2ccc(N3C[C@@H](O)C[C@@H]3c3cc(F)ccc3F)nc12` [Example 44, 2-amino-5-((2R,4S)-2-(2,5-difluorophenyl)-4-hydroxypyrrolidin-1-yl)pyrazolo[1,5-a]pyrimidine-3-carbonitrile], for which, in data set [3] (Table 1, ATP 40 μM), the negative logarithm of the IC50 (pIC50) is > 7.60.

Regarding `CCOC(=O)c1c(N)nn2ccc(N3CC(F)(F)CC3c3cc(F)ccc3F)nc12` (stereo not drawn) [Example 38, ethyl 2-amino-5-(2-(2,5-difluorophenyl)-4,4-difluoropyrrolidin-1-yl)pyrazolo[1,5-a]pyrimidine-3-carboxylate], the pIC50 in data set [3] (Table 1, ATP 40 μM) was > 7.60.

As for `CCOC(=O)c1c(N)nn2ccc(N3C[C@@H](F)C[C@H]3c3cc(F)ccc3F)nc12` [Example 37, ethyl 2-amino-5-((2S,4S)-2-(2,5-difluorophenyl)-4-fluoropyrrolidin-1-yl)pyrazolo[1,5-a]pyrimidine-3-carboxylate], in data set [3] (Table 1, ATP 40 μM), the negative logarithm of the IC50 (pIC50) was > 6.30.

Take `CCOC(=O)c1c(NCCN2CCOCC2)nn2ccc(N3CCC[C@@H]3c3cc(F)ccc3F)nc12` [Example 23, ethyl (R)-5-(2-(2,5-difluorophenyl)pyrrolidin-1-yl)-2-((2-morpholinylethyl)amino)pyrazolo[1,5-a]pyrimidine-3-carboxylate]: the negative-log IC50 (pIC50) in data set [3] (Table 1, ATP 40 μM) is > 7.00.

Take `CCOC(=O)c1c(NC)nn2ccc(N3CCC[C@@H]3c3cc(F)ccc3F)nc12` [Example 20, ethyl (R)-5-(2-(2,5-difluorophenyl)pyrrolidin-1-yl)-2-(methylamino)pyrazolo[1,5-a]pyrimidine-3-carboxylate]: in data set [3] (Table 1, ATP 40 μM), the negative-log IC50 (pIC50) is > 6.00.

For the compound `Nc1nn2ccc(N3CCC[C@@H]3c3cc(F)ccc3F)nc2c1C(=O)NCCO` [Example 13, (R)-2-amino-5-(2-(2,5-difluorophenyl)pyrrolidin-1-yl)-N-(2-hydroxyethyl)pyrazolo[1,5-a]pyrimidine-3-carboxamide], the negative-log IC50 (pIC50) in data set [3] (Table 1, ATP 40 μM) is > 9.00.

For `Nc1cc2nc(N3CCCC3c3cc(F)ccc3F)ccn2n1` (stereo not drawn) [Example 24, 5-(2-(2,5-difluorophenyl)pyrrolidin-1-yl)pyrazolo[1,5-a]pyrimidin-2-amine], in data set [3] (Table 1, ATP 40 μM), the pIC50 was > 6.30.
